Organism: Rattus norvegicus
Assay: Open TG-GATES - Regimen: Single
Type: toxicity, organism-based, Sprague-Dawley
Parameters: regimen Single, gender Male, age 6 weeks
Settings: in vivo, po, route gavage; for APTT / Bas / Eos / Fbg / Hb / Ht / Lym / MCH / MCHC / MCV / Mono / Neu / PT / Plat / RBC / Ret / WBC: tissue Blood; for KIDNEY_L / KIDNEY_R / KIDNEY_TOTAL: tissue Kidney; for LIVER: tissue Liver; for A/G / ALP / ALT / AST / BUN / CRE / Ca / Cl / DBIL / GLC / IP / K / LDH / Na / PL / RALB / TBIL / TC / TG / TP / gamma-GTP: tissue Plasma
[1] = 1200 mg/kg, 3 h, dose level Middle
[2] = 1200 mg/kg, 6 h, dose level Middle
[3] = 1200 mg/kg, 9 h, dose level Middle
[4] = 1200 mg/kg, 24 h, dose level Middle
[5] = 4000 mg/kg, 3 h, dose level High
[6] = 4000 mg/kg, 6 h, dose level High
[7] = 4000 mg/kg, 9 h, dose level High
[8] = 4000 mg/kg, 24 h, dose level High

## CCO [ALCOHOL]
[1]
  TERMINAL_BW: 203.8 g
  APTT: 18.7 s
  Bas: 0%
  Eos: 1%
  Fbg: 200 mg/dL
  Hb: 13.2 g/dL
  Ht: 39.1%
  Lym: 72%
  MCH: 22.1 pg
  MCHC: 33.7%
  MCV: 65.5 fL
  Mono: 5.6%
  Neu: 21.6%
  PT: 12.4 s
  Plat: 108.6 x10_4/uL
  RBC: 596.8 x10_4/ul
  Ret: 8.1%
  WBC: 95.6 x10_2/uL
  KIDNEY_L: 0.9 g
  KIDNEY_R: 1 g
  KIDNEY_TOTAL: 1.9 g
  LIVER: 9.2 g
  A/G: 2.8
  ALP: 973.6 IU/L
  ALT: 38 IU/L
  AST: 69.8 IU/L
  BUN: 9 mg/dL
  CRE: 0.5 mg/dL
  Ca: 10.7 mg/dL
  Cl: 104.6 meq/L
  DBIL: 0.016 mg/dL
  GLC: 204.4 mg/dL
  IP: 8.9 mg/dL
  K: 4.5 meq/L
  LDH: 121.2 IU/L
  Na: 140 meq/L
  PL: 138 mg/dL
  RALB: 3.8 g/dL
  TBIL: 0.4 mg/dL
  TC: 74.8 mg/dL
  TG: 60.8 mg/dL
  TP: 5.2 g/dL
  gamma-GTP: 1.2 IU/L
[2]
  TERMINAL_BW: 203.8 g
  APTT: 17.5 s
  Bas: 0%
  Eos: 1.2%
  Fbg: 196.6 mg/dL
  Hb: 13.3 g/dL
  Ht: 39.9%
  Lym: 67%
  MCH: 21.7 pg
  MCHC: 33.3%
  MCV: 65 fL
  Mono: 12%
  Neu: 19.4%
  PT: 12.2 s
  Plat: 98.4 x10_4/uL
  RBC: 615.4 x10_4/ul
  Ret: 13.5%
  WBC: 87.4 x10_2/uL
  KIDNEY_L: 0.9 g
  KIDNEY_R: 1 g
  KIDNEY_TOTAL: 1.9 g
  LIVER: 9.2 g
  A/G: 2.4
  ALP: 827.2 IU/L
  ALT: 36 IU/L
  AST: 71 IU/L
  BUN: 11.4 mg/dL
  CRE: 0.5 mg/dL
  Ca: 10.5 mg/dL
  Cl: 105.2 meq/L
  DBIL: 0.066 mg/dL
  GLC: 203 mg/dL
  IP: 10.3 mg/dL
  K: 4.6 meq/L
  LDH: 87 IU/L
  Na: 140.8 meq/L
  PL: 132.4 mg/dL
  RALB: 3.8 g/dL
  TBIL: 0.4 mg/dL
  TC: 69.2 mg/dL
  TG: 59.4 mg/dL
  TP: 5.3 g/dL
  gamma-GTP: 1.8 IU/L
[3]
  TERMINAL_BW: 201.5 g
  APTT: 17.2 s
  Bas: 0%
  Eos: 1.6%
  Fbg: 204.2 mg/dL
  Hb: 13.5 g/dL
  Ht: 40.2%
  Lym: 73%
  MCH: 21.2 pg
  MCHC: 33.5%
  MCV: 63.3 fL
  Mono: 7.4%
  Neu: 18.2%
  PT: 12.1 s
  Plat: 114.7 x10_4/uL
  RBC: 635.8 x10_4/ul
  Ret: 9.9%
  WBC: 73.2 x10_2/uL
  KIDNEY_L: 0.9 g
  KIDNEY_R: 0.9 g
  KIDNEY_TOTAL: 1.9 g
  LIVER: 8.4 g
  A/G: 2.8
  ALP: 845 IU/L
  ALT: 28.8 IU/L
  AST: 61.6 IU/L
  BUN: 11 mg/dL
  CRE: 0.5 mg/dL
  Ca: 10.9 mg/dL
  Cl: 105.8 meq/L
  DBIL: 0.042 mg/dL
  GLC: 192 mg/dL
  IP: 10.7 mg/dL
  K: 4.7 meq/L
  LDH: 102 IU/L
  Na: 136.4 meq/L
  PL: 132.2 mg/dL
  RALB: 4.1 g/dL
  TBIL: 0.4 mg/dL
  TC: 71.6 mg/dL
  TG: 35 mg/dL
  TP: 5.6 g/dL
  gamma-GTP: 1.4 IU/L
[4]
  TERMINAL_BW: 217.4 g
  APTT: 17.6 s
  Bas: 0%
  Eos: 1.2%
  Fbg: 207.2 mg/dL
  Hb: 13.2 g/dL
  Ht: 39.2%
  Lym: 73.4%
  MCH: 21.8 pg
  MCHC: 33.6%
  MCV: 64.9 fL
  Mono: 9.2%
  Neu: 16.4%
  PT: 11.4 s
  Plat: 113.3 x10_4/uL
  RBC: 604.6 x10_4/ul
  Ret: 10.6%
  WBC: 106.7 x10_2/uL
  KIDNEY_L: 1 g
  KIDNEY_R: 1 g
  KIDNEY_TOTAL: 1.9 g
  LIVER: 10.5 g
  A/G: 2.6
  ALP: 909 IU/L
  ALT: 37.8 IU/L
  AST: 64.8 IU/L
  BUN: 21.2 mg/dL
  CRE: 0.5 mg/dL
  Ca: 11 mg/dL
  Cl: 103.6 meq/L
  DBIL: 0 mg/dL
  GLC: 188 mg/dL
  IP: 8.8 mg/dL
  K: 4.9 meq/L
  LDH: 109.8 IU/L
  Na: 138.8 meq/L
  PL: 159.4 mg/dL
  RALB: 4 g/dL
  TBIL: 0.3 mg/dL
  TC: 83.6 mg/dL
  TG: 101.8 mg/dL
  TP: 5.6 g/dL
  gamma-GTP: 1 IU/L
[5]
  TERMINAL_BW: 206.9 g
  APTT: 17.9 s
  Bas: 0%
  Eos: 1.6%
  Fbg: 188.4 mg/dL
  Hb: 13.4 g/dL
  Ht: 40.1%
  Lym: 78%
  MCH: 21.9 pg
  MCHC: 33.4%
  MCV: 65.6 fL
  Mono: 7.2%
  Neu: 13.8%
  PT: 12.2 s
  Plat: 110.6 x10_4/uL
  RBC: 612.2 x10_4/ul
  Ret: 9.9%
  WBC: 86.8 x10_2/uL
  KIDNEY_L: 1 g
  KIDNEY_R: 1 g
  KIDNEY_TOTAL: 1.9 g
  LIVER: 9.6 g
  A/G: 2.5
  ALP: 733.4 IU/L
  ALT: 35.2 IU/L
  AST: 65.8 IU/L
  BUN: 8.8 mg/dL
  CRE: 0.5 mg/dL
  Ca: 10.3 mg/dL
  Cl: 104.4 meq/L
  DBIL: 0.02 mg/dL
  GLC: 212.4 mg/dL
  IP: 9.1 mg/dL
  K: 4.7 meq/L
  LDH: 106.2 IU/L
  Na: 139.8 meq/L
  PL: 148.4 mg/dL
  RALB: 3.8 g/dL
  TBIL: 0.4 mg/dL
  TC: 79.8 mg/dL
  TG: 77.8 mg/dL
  TP: 5.3 g/dL
  gamma-GTP: 1.8 IU/L
[6]
  TERMINAL_BW: 206.9 g
  APTT: 19.1 s
  Bas: 0%
  Eos: 1.2%
  Fbg: 205 mg/dL
  Hb: 13.5 g/dL
  Ht: 40.4%
  Lym: 81%
  MCH: 21.3 pg
  MCHC: 33.4%
  MCV: 63.9 fL
  Mono: 4.6%
  Neu: 13.4%
  PT: 11.8 s
  Plat: 112.3 x10_4/uL
  RBC: 632.8 x10_4/ul
  Ret: 13.6%
  WBC: 124.9 x10_2/uL
  KIDNEY_L: 1 g
  KIDNEY_R: 1 g
  KIDNEY_TOTAL: 1.9 g
  LIVER: 9.6 g
  A/G: 2.3
  ALP: 839.4 IU/L
  ALT: 31 IU/L
  AST: 59.4 IU/L
  BUN: 8.6 mg/dL
  CRE: 0.5 mg/dL
  Ca: 10.4 mg/dL
  Cl: 104.2 meq/L
  DBIL: 0.078 mg/dL
  GLC: 204.6 mg/dL
  IP: 9.7 mg/dL
  K: 5 meq/L
  LDH: 78 IU/L
  Na: 139 meq/L
  PL: 153.6 mg/dL
  RALB: 3.7 g/dL
  TBIL: 0.4 mg/dL
  TC: 82.6 mg/dL
  TG: 46 mg/dL
  TP: 5.4 g/dL
  gamma-GTP: 1.4 IU/L
[7]
  TERMINAL_BW: 200.3 g
  APTT: 17.6 s
  Bas: 0%
  Eos: 1%
  Fbg: 205.2 mg/dL
  Hb: 13.5 g/dL
  Ht: 40.5%
  Lym: 76.4%
  MCH: 21.8 pg
  MCHC: 33.4%
  MCV: 65.3 fL
  Mono: 7%
  Neu: 15.6%
  PT: 12 s
  Plat: 107.8 x10_4/uL
  RBC: 621.6 x10_4/ul
  Ret: 9.9%
  WBC: 72.9 x10_2/uL
  KIDNEY_L: 0.9 g
  KIDNEY_R: 1 g
  KIDNEY_TOTAL: 1.9 g
  LIVER: 8.2 g
  A/G: 2.7
  ALP: 857.6 IU/L
  ALT: 30.6 IU/L
  AST: 65.8 IU/L
  BUN: 12.8 mg/dL
  CRE: 0.4 mg/dL
  Ca: 10.8 mg/dL
  Cl: 105.6 meq/L
  DBIL: 0.04 mg/dL
  GLC: 190.8 mg/dL
  IP: 10 mg/dL
  K: 5 meq/L
  LDH: 96.4 IU/L
  Na: 137 meq/L
  PL: 154 mg/dL
  RALB: 4.1 g/dL
  TBIL: 0.4 mg/dL
  TC: 79.8 mg/dL
  TG: 49 mg/dL
  TP: 5.6 g/dL
  gamma-GTP: 1.4 IU/L
[8]
  TERMINAL_BW: 210.8 g
  APTT: 16.5 s
  Bas: 0%
  Eos: 2%
  Fbg: 202 mg/dL
  Hb: 13.8 g/dL
  Ht: 40.7%
  Lym: 70.4%
  MCH: 21.5 pg
  MCHC: 33.8%
  MCV: 63.5 fL
  Mono: 11.4%
  Neu: 16.4%
  PT: 11.8 s
  Plat: 115.4 x10_4/uL
  RBC: 640.6 x10_4/ul
  Ret: 10.2%
  WBC: 84.1 x10_2/uL
  KIDNEY_L: 0.9 g
  KIDNEY_R: 1 g
  KIDNEY_TOTAL: 1.9 g
  LIVER: 9.5 g
  A/G: 2.6
  ALP: 971 IU/L
  ALT: 41.8 IU/L
  AST: 68.2 IU/L
  BUN: 17.6 mg/dL
  CRE: 0.5 mg/dL
  Ca: 10.9 mg/dL
  Cl: 103.4 meq/L
  DBIL: 0.014 mg/dL
  GLC: 200.4 mg/dL
  IP: 8.5 mg/dL
  K: 4.9 meq/L
  LDH: 102.6 IU/L
  Na: 138 meq/L
  PL: 155 mg/dL
  RALB: 4 g/dL
  TBIL: 0.3 mg/dL
  TC: 80.8 mg/dL
  TG: 109.8 mg/dL
  TP: 5.5 g/dL
  gamma-GTP: 1.2 IU/L
